{"source": "paper PMC9369335", "about": "“Tailoring the Structure of Cell Penetrating DNA and RNA Binding Nucleopeptides” (International Journal of Molecular Sciences, 2022)", "tested_on": "HT29, CCRF-CEM and Jurkat cells", "test": "Cellular and nuclear uptake of FITC-labelled nucleopeptides by flow cytometry", "assay_type": "cell-based, human", "details": "10 µM, 3 h, 37 °C, comparison in words", "procedure": "The promising results achieved with 32 and 33 in terms of DNA and RNA recognition and binding studies prompted us to investigate their capability to cross the cellular membrane and to distribute between cytoplasm and nucleus. Specifically, cell penetration experiments were carried out employing 34 and 35 (the FITC-labelled derivatives of 32 and 33, respectively) on three different cancer cell lines (Jurkat, HT29 and CEM). […]\nThe fluorescence of Fluorescein Isothiocyanate (FITC) (excitation 488 nm, emission 525 nm) was used to evaluate the intracellular and intranuclear nucleopeptides uptake using flow cytometry. […] To evaluate cellular uptake, the cell pellets were suspended in 500 µL of PBS and analyzed by flow cytometry. For nuclear uptake, the nuclei were extracted with PBS-Triton (0.5%) for 15 min at room temperature (RT), washed with PBS-Triton (0.1%), suspended in 500 µL of PBS and analyzed by FACS ARIA III flow cytometry (BD Bioscience, Mountain View, CA, USA) with DIVA software 8.01. […] The uptake was evaluated as mean fluorescence and was analyzed using FlowJo 10.7.1 software.", "note": "Square brackets hold non-standard residues; d marks the D form. Peptide text beside a SMILES is read from it. * marks the point of attachment. FITC = O=C1OC2(c3ccc(O)cc3Oc3cc(O)ccc32)c2ccc(NC(=S)*)cc21; Acetyl(thymin-1-yl) = Cc1cn(CC(=O)*)c(=O)[nH]c1=O; Dab = NCC[C@H](N)C(=O)O; Ahx = NCCCCCC(=O)O"}
{"smiles": "Cc1cn(CC(=O)NCC[C@H](NC(=O)CCCCCNC(=S)Nc2ccc3c(c2)C(=O)OC32c3ccc(O)cc3Oc3cc(O)ccc32)C(=O)N[C@@H](CCCNC(=N)N)C(=O)N[C@@H](CCNC(=O)Cn2cc(C)c(=O)[nH]c2=O)C(=O)N[C@@H](CCCNC(=N)N)C(=O)N[C@@H](CCNC(=O)Cn2cc(C)c(=O)[nH]c2=O)C(=O)N[C@@H](CCCNC(=N)N)C(=O)N[C@@H](CCNC(=O)Cn2cc(C)c(=O)[nH]c2=O)C(=O)N[C@@H](CCCNC(=N)N)C(=O)N[C@@H](CCNC(=O)Cn2cc(C)c(=O)[nH]c2=O)C(=O)N[C@@H](CCCNC(=N)N)C(=O)N[C@@H](CCNC(=O)Cn2cc(C)c(=O)[nH]c2=O)C(=O)N[C@@H](CCCNC(=N)N)C(N)=O)c(=O)[nH]c1=O", "note": "[compound 34] ({FITC-Ahx}-[Dab](Acetyl(thymin-1-yl))R[Dab](Acetyl(thymin-1-yl))R[Dab](Acetyl(thymin-1-yl))R[Dab](Acetyl(thymin-1-yl))R[Dab](Acetyl(thymin-1-yl))R[Dab](Acetyl(thymin-1-yl))R-NH2)", "values": [{"measurement": "concentration in cytoplasm (cellular uptake, mean fluorescence)", "setting": "1 × 10^6 cells", "result": "significantly higher than 35"}, {"measurement": "concentration in nucleus (nuclear uptake, mean fluorescence)", "setting": "nuclei extracted with PBS-Triton 0.5%", "result": "significantly higher than 35"}]}
